# Patent US20250375436A1, “SERDEXMETHYLPHENIDATE FOR TREATMENT OF IDIOPATHIC HYPERSOMNIA” (ZEVRA THERAPEUTICS, INC., priority 2024, published 2025)
# How the values were obtained:
# Assay type in all cases: in vivo, human
# adults with IH [1] = test: Phase 2 IH study: Sleep Inertia Visual Analog Scale (SI-VAS); settings: for SI-VAS, Mean, Titration Baseline: before treatment; for SI-VAS, Mean, Randomization Baseline (Week 5): end of open-label titration; for SI-VAS, Difference in LS Mean (SE): SDX vs placebo, ANCOVA; for Decrease in mean SI-VAS score: 5-week titration period
# Excerpt: “Sleep Inertia Visual Analog Scale” or “SI-VAS,” as it relates to the present technology, is a psychometric response scale to assess how difficult it was for the patient to wake up in the morning. The SI-VAS is a unipolar scale anchored at 0 (“very easy”) and 100 (“very difficult”).
# (§1) A double-blind, placebo-controlled, randomized-withdrawal, dose-optimizing, multi-center study investigated the safety and efficacy of serdexmethylphenidate for the treatment of IH. Twenty-two (22) patients completed a 7-week study consisting of two parts. Part 1 of the trial comprised a five-week open-label titration phase during which patients were optimized to one of four total daily doses of serdexmethylphenidate (80, 160, 240, or 320 mg/day). About half the study participants were assigned to take the total daily dose of study drug once per day just before going to bed (QD dosing cohort). The other half was instructed to take half the daily dose of study drug in the morning after awakening and the second half of the daily dose just before going to bed (BID dosing cohort). The titration procedure during the 5-week open label period was conducted as follows: patient treatment was initiated with the lowest total daily dose (80 mg/day) regardless of dosing regimen. At subsequent clinical visits scheduled at intervals of about 1 week each, the dose of the patient was either decreased (except after the first week), maintained, or increased based on tolerability, clinical effect, and adverse events. Depending on the severities of any dose-limiting effects as determined by the clinician, the dose was decreased if possible or the patient was discontinued from the study. If the dose was tolerated by the patient and the clinician determined an opportunity to improve effectiveness, the dose of study drug was increased if possible. Otherwise, the dose was maintained in the subsequent week.
# (§2) Part 2 of the trial comprised a two-week randomized (2:1), double-blind, withdrawal phase, during which two-thirds of the trial participants continued to receive their optimized dose while the remaining one-third received placebo. During the withdrawal phase, patients continued the same dosing regimen (QD or BID) they were assigned to at treatment initiation and adhered to during the titration phase.
# (§3) Secondary efficacy endpoints included Excessive Daytime Sleepiness (EDS) assessed with the Epworth Sleepiness Scale (ESS). Additional secondary endpoints were based on the Idiopathic Hypersomnia Severity Scale (IHSS), daily rating of difficulty of waking up in the morning assessed with the Sleep Inertia Visual Analog Scale (SI-VAS), and rating of brain fog symptoms measured with an exploratory Brain Fog Scale (BFS). Scores on the ESS, IHSS, and BFS were based on a 1-week look-back period.
# The SI-VAS is a unipolar scale anchored at 0 (“very easy”) and 100 (“very difficult”). The horizontal dashed line at an SI-VAS score of 50 points represents the midpoint between individuals finding it very easy to awaken and individuals finding it very difficult to awaken in the morning. SI-VAS Patients on the QD dosing schedule reported a decrease of about 33 points in mean SI-VAS score over the 5-week titration period while being treated with conjugate of d-methylphenidate, while patients on the BID dosing schedule reported a decrease in mean SI-VAS of about 24-30 points.
# adults with IH [2] = test: Phase 2 IH study: Brain Fog Scale (BFS); settings: for Brain Fog, Mean, Titration Baseline: before treatment; for Brain Fog, Mean, Randomization Baseline (Week 5): end of open-label titration; for Brain Fog, Difference in LS Mean (SE): SDX vs placebo, ANCOVA
# Excerpt: “Brain Fog Symptom Score” or “BFS” as it relates to the present technology, means the total score collected with a 19-item questionnaire asking the respondents to describe their mental state while experiencing “Brain Fog” during the last week. The currently recognized 19 mental states of BF include forgetful, difficulty thinking, difficulty focusing, cloudy, difficulty finding the right words/communicating, mental fatigue, slow, mind went blank, spacey, difficulty processing what others say, exhausted, easily distracted, difficulty processing words read, confused, annoyed, sleepy, lost, detached, thoughts moving too quickly. Each item is answered based on a 0 to 4-point Likert scale where 0 means “strongly disagree” and 4 means “strongly agree”.
# as §1, §2, §3
# The BFS scale is based on a 19 item questionnaire where each question is scored on a 0-4 Likert scale where a score of 0 means “strongly disagree”, a score of 2 means “neutral”, and a score of 4 means “strongly agree”. Possible BFS total scores range from 0 to 76. The horizontal dashed line at a BFS score of 38 points represents the total BFS score of for “neutral” responses to all 19 questions.
# adults with IH [3] = test: Phase 2 IH study: Epworth Sleepiness Scale (ESS); settings: BID Cohort, SDX (N = 17)
# Excerpt: “Epworth Sleepiness Scale” or “ESS,” as it relates to the present technology, means a self-administered questionnaire with 8 questions. Respondents are asked to rate, on a 4-point scale (0-3), their usual chances of dozing off or falling asleep while engaged in eight different activities. Most people engage in those activities at least occasionally, although not necessarily every day. The ESS score (the sum of 8 item scores, 0-3) can range from 0 to 24. The higher the ESS score, the higher that person's average sleep propensity in daily life (ASP), or their ‘daytime sleepiness’. ESS score are generally interpreted as follows: 0-5, lower normal daytime sleepiness; 6-10 higher normal daytime sleepiness; 11-12, mild excessive daytime sleepiness; 13-15, moderate excessive daytime sleepiness; and 16-24, severe excessive daytime sleepiness. [https://epworthsleepinessscale.com/about-theess/]herein incorporated by reference.
# as §1, §2, §3
# The minimally clinically important difference for the ESS scale is 2-3 points. The horizontal dashed line at an ESS score of 10 points marks the boundary between “normal” levels of daytime sleepiness and “excessive” levels of daytime sleepiness. Scores of 10 and less are generally considered “healthy” or “normal” levels of daytime sleepiness whereas scores greater than 10 are considered “excessive”.
smiles,measurement,setting,value
"COC(=O)[C@H](c1ccccc1)[C@H]1CCCCN1C(=O)OC[n+]1cccc(C(=O)N[C@@H](CO)C(=O)O)c1 [SDX, serdexmethylphenidate]","SI-VAS, Mean Change from Randomization Baseline to Week 7","adults with IH [1]; BID Cohort, SDX (N = 17)",1.1
same,"SI-VAS, Mean, End of Withdrawal Period (Week 7)","adults with IH [1]; BID Cohort, SDX (N = 17)",49.0
same,"SI-VAS, Mean, Titration Baseline","adults with IH [1]; BID Cohort, SDX (N = 17)",68.5
same,"SI-VAS, Mean, Randomization Baseline (Week 5)","adults with IH [1]; BID Cohort, SDX (N = 17)",45.0
same,"SI-VAS, Difference in LS Mean (SE)","adults with IH [1]; BID Cohort, p-value 0.104",−10.0 (5.98)
same,Decrease in mean SI-VAS score,adults with IH [1]; BID dosing schedule,24-30 points
same,"SI-VAS, Mean Change from Randomization Baseline to Week 7","adults with IH [1]; QD Cohort, SDX (N = 15)",5.9
same,"SI-VAS, Mean, End of Withdrawal Period (Week 7)","adults with IH [1]; QD Cohort, SDX (N = 15)",40.4
same,"SI-VAS, Mean, Titration Baseline","adults with IH [1]; QD Cohort, SDX (N = 15)",68.8
same,"SI-VAS, Mean, Randomization Baseline (Week 5)","adults with IH [1]; QD Cohort, SDX (N = 15)",35.1
same,"SI-VAS, Difference in LS Mean (SE)","adults with IH [1]; QD Cohort, p-value 0.208",8.2 (6.39)
same,Decrease in mean SI-VAS score,adults with IH [1]; QD dosing schedule,about 33 points
same,Increase in mean SI-VAS score,"adults with IH [1]; both QD and BID cohorts continuing treatment, 2-week withdrawal period",less than 6 points
same,"Brain Fog, Mean Change from Randomization Baseline to Week 7","adults with IH [2]; BID Cohort, SDX (N = 17)",1.5
same,"Brain Fog, Mean, End of Withdrawal Period (Week 7)","adults with IH [2]; BID Cohort, SDX (N = 17)",30.1
same,"Brain Fog, Mean, Titration Baseline","adults with IH [2]; BID Cohort, SDX (N = 17)",52.4
same,"Brain Fog, Mean, Randomization Baseline (Week 5)","adults with IH [2]; BID Cohort, SDX (N = 17)",28.6
same,"Brain Fog, Difference in LS Mean (SE)","adults with IH [2]; BID Cohort, p-value 0.060",−13.7 (7.07)
same,"Brain Fog, Mean Change from Randomization Baseline to Week 7","adults with IH [2]; QD Cohort, SDX (N = 15)",0.9
same,"Brain Fog, Mean, End of Withdrawal Period (Week 7)","adults with IH [2]; QD Cohort, SDX (N = 15)",28.5
same,"Brain Fog, Mean, Titration Baseline","adults with IH [2]; QD Cohort, SDX (N = 15)",52.3
same,"Brain Fog, Mean, Randomization Baseline (Week 5)","adults with IH [2]; QD Cohort, SDX (N = 15)",27.5
same,"Brain Fog, Difference in LS Mean (SE)","adults with IH [2]; QD Cohort, p-value 0.995",0.0 (7.50)
same,Decrease in mean BFS score,"adults with IH [2]; all patients, 5-week titration period",19-25 points
same,Change in mean BFS score,adults with IH [2]; patients continuing treatment during the 2-week withdrawal period,no more than 1.5 points
same,"ESS, Mean Change from Randomization Baseline to Week 7",adults with IH [3],0.1
same,"ESS, Mean, End of Withdrawal Period (Week 7)",adults with IH [3],7.6
same,"ESS, Mean, Titration Baseline",adults with IH [3]; before treatment,16.5
